The values below come from patent US6512007B1, “Use of galiella lactone” (Bayer Aktiengesellschaft, priority 2000, dated 2003).

Each structure is given as a SMILES string.

The target of one assay is T1, activated Stat3 dimers (Homo sapiens, UniProt P40763).
T1 construct: Probe used: m67SIE, induction time 20 minutes: cell line: HepG2; endogenous in cells; host or cells: HepG2 (cell extract)
The assay is described as follows: Electrophoretic mobility shift assay: DNA binding of activated Stat3 dimers to m67SIE probe. The following applies: 16 ng/ml (82 nM), HepG2. From the text:
The DNA binding of activated Stat3 dimers to their binding sites in the promoters of the target genes is the basic requirement for transcriptional activation of these genes. At the same time, this step is specific for Stat3, i.e. inhibition of this step would result in specific inhibition of IL-6-induced and Stat3-mediated expression of the target genes without simultaneously affecting other signal cascades. The effect of the various compounds on the DNA binding ability of the phosphorylated and thus activated Stat3 dimers was analysed by carrying out electrophoretic mobility shift assays (EMSAs, gel shift assays).
The procedure was as described in Nature, 1993, 362: 79-83 and Mol. Cell Biol, 1998, 18: 2108-17. The DNA probe used was the ^32P-labelled, double-stranded oligonucleotide with the m67SIE recognition sequence (S2) (wild-type) (cf. EMBO J. 1995, 14: 1421-9)
It was possible to show with control mixtures in which the induced control was preincubated with phospho-Stat3 (tyrosine 705)-specific antibodies that it is Stat3 phosphorylated on the tyrosine 705 residue which binds to the m67SIE probe (see FIG. 6).
Effect of galiella lactone on the binding of activated Stat3 dimers to their DNA recognition sequence. Probe used: m67SIE, induction time 20 minutes: cell line: HepG2.

Assay [1] relates to primary neurons of the rat cerebellum. The assay is described as follows: NMDA-mediated calcium influx into primary neurons after chronic IL-6 treatment. It is filed as cell-based. Here is the method: Cultures of primary neurons were obtained from the cerebella of rats 6 to 8 days old as described by B. Engelsen and R. Bjerkvig [in R. I. Freshney (Editor) Culture of Animal Cells, 2nd Edition, Alan R. Liss, Inc. New York 1987, 277-279]. After removal of the tissue, single cells were obtained using papain and were seeded out in a density of 200 00 cells per well in microtitre plates (96 wells) coated with poly-D-lysine. The cells were cultivated in a growth medium consisting of DMEM/F12, 10% heat-inactivated horse serum. 25 mM KCl, 30 mM glucose, 2 mM glutamine. In order to minimize the number of glial cells, 5-fluoro-2′-deoxyuridine (20 μg/ml) was added on the first and fourth day in culture. The cultures obtained in this way consisted of more than 95% neurons.
Human recombinant interluekin-6 (IL-6) was dissolved in physiological salt solution (Hank's balanced salt solution) and added to neuron cultures on days, 1, 4, 7 and 11 after the start of culturing (final) concentration 5 ng/ml). […]
12 days after the start of culturing, the N-methyl-D-asparate (NMDA)-induced changes in the intracellular calcium level were measured using a fluorescence plate reader (Ascent Fluoroscan). […] The cells were stimulated by adding NMDA (final concentration 200 μM) in the presence of glycine (final concentration 5 μM), and the fluroescence was measured at 15-second intervals over a period of one minute (excitation 485 nm. emission 530 nm). Intracellular calcium concentrations were calculated by the formula [Ca^2]i=Kd.
The arithmetic means was formed from the intracellular calcium concentrations found at all four times of measurement, and the percentage change from the unstimulated controls (basa) calcium concentration) was calculated.
Inhibition of the potentiation, induced chronic IL-6 administration, of the NMDA-mediated calcium influx into primary neurons of the rat cerebellum by galiella lactone. […] The average calcium concentration during the one-minute measurement period was calculated and expressed as a per cent of the basal intracellular calcium concentration. […]

T1 sequence (P40763 2-770 limits assumed): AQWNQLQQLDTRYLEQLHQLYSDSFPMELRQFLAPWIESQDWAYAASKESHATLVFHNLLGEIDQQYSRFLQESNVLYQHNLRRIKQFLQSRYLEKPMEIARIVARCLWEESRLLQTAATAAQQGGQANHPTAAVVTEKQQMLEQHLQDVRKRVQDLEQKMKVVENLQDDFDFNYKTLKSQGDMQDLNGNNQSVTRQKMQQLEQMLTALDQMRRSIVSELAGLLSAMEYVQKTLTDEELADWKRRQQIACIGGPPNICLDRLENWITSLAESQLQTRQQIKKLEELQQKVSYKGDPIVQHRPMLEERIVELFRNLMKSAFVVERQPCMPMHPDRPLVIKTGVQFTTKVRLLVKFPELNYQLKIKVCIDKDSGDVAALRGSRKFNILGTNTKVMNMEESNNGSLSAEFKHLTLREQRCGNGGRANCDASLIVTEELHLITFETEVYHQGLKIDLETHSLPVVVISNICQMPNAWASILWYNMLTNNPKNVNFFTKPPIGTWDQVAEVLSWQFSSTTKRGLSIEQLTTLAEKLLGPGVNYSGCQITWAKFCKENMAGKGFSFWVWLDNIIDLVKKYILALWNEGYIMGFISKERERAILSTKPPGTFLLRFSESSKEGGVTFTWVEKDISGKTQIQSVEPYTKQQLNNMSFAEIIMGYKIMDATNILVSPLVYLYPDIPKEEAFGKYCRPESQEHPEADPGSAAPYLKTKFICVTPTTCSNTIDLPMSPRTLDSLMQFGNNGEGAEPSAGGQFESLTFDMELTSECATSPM

As for `C[C@H]1C=C2C(=O)O[C@H]3CC[C@@H](C1)[C@@]23O` [galiella lactone], the “binding of the activated Stat3 dimers to their recognition sequence” value on activated Stat3 dimers is given as “completely inhibits”. The “IL-6-induced enhancement of the NMDA-mediated calcium influx” value in assay [1] (1 μM before each IL-6 addition (5 ng/ml), NMDA 200 μM) was “completely prevented”. For the same compound, the “NMDA-induced increase in average intracellular calcium concentration” value in assay [1] (chronic administration 1 μM, NMDA 200 μM, without IL-6) is listed as “somewhat reduced”. Moreover, the “effect on the basal calcium level” value in assay [1] (chronic treatment, 1 μM, no NMDA) is given as “no effect”.
